Activity calls are given as the source filed them.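 Rule for the calls: active = reversible inhibitor in any panel, blocking the enzyme before filtration but under 50% inhibition after two or more filtrations; inactive = irreversible inhibitor in every panel.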
Columns and labels:
[1] = biological target: Acyl-protein thioesterase 1 (Homo sapiens) (UniProt O75608); test: LYPLA1 and LYPLA2 inhibitor binding mode – cell lysate, gel-based ABPP, fluorescence, gel filtration, HEK293T proteome, mechanism study, late-stage follow-up (AID 651987); conditions: HEK293T soluble proteome
[2] = biological target: Acyl-protein thioesterase 2 (Homo sapiens) (UniProt O95372); test: as above; conditions: HEK293T soluble proteome
[3] = LYPLA1, after 1 gel filtration, stronger effect = higher value
[4] = LYPLA1, stronger effect = higher value, concentration not given here
[5] = LYPLA2, after 1 gel filtration, stronger effect = higher value
[6] = LYPLA2, stronger effect = higher value, concentration not given here
[7] = LYPLA1, after 2 gel filtrations, stronger effect = higher value
[8] = LYPLA2, after 2 gel filtrations, stronger effect = higher value

Chain of Acyl-protein thioesterase 2 (Homo sapiens) (O95372 whole entry, looked up): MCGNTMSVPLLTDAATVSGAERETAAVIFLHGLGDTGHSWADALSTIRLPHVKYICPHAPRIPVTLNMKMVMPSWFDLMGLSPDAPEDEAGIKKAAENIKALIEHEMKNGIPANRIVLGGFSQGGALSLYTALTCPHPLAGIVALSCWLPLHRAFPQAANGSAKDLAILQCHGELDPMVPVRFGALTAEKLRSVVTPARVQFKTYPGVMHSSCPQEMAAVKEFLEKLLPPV
Chain of Acyl-protein thioesterase 1 (Homo sapiens) (O75608 whole entry, looked up): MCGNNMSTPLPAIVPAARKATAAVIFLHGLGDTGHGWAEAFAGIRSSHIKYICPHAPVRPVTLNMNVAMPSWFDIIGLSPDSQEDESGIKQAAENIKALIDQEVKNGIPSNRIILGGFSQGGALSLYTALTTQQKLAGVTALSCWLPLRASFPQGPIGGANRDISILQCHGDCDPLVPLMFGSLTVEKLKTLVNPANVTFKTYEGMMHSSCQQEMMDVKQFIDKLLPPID

Row | inhibition [1, 3] [%] | inhibition ([1]; LYPLA1, after 3 gel filtrations, stronger effect = higher value) [%] | inhibition [1, 4] | inhibition [2, 5] [%] | inhibition ([2]; LYPLA2, after 3 gel filtrations, stronger effect = higher value) [%] | inhibition [2, 6] | inhibition [1, 7] [%] | inhibition [2, 8] [%] | SMILES
1 | 100 | 100 | 100% (inactive) | 100 | 100 | 100% (inactive) |  |  | O=C(N1CCCCC1)n1ccnn1
2 | 75 |  | 100% | 0 |  | 0% (inactive) | 0 | 0 | O=C(CN1CCN(C(=O)c2ccco2)CC1)Nc1cc(C(F)(F)F)ccc1Cl
3 | 0 |  | 0% (inactive) | 100 |  | 100% | 0 | 0 | COc1ccc(N2CCN(C(=O)c3cc4c(s3)-c3ccccc3S(=O)(=O)C4)CC2)cc1
